“And” between values parts separate entries of the source, which are not always exact repeats. Equal values may be shown once.

The target of experiment [1] is D(2) dopamine receptor (Rattus norvegicus, UniProt P61169).
Experiment [2] addresses D(4) dopamine receptor (Homo sapiens, UniProt P21917).
In experiment [3] the target is D(3) dopamine receptor (Homo sapiens, UniProt P35462).
Experiment [4] addresses D(2) dopamine receptor (Homo sapiens, UniProt P14416).
Experiment [5] concerns the target 5-hydroxytryptamine receptor 7 (Homo sapiens, UniProt P34969).
Experiment [6] concerns the target Alpha-1A adrenergic receptor (Rattus norvegicus, UniProt P43140).
In experiment [7] the target is 5-hydroxytryptamine receptor 6 (Homo sapiens, UniProt P50406).
Sequence of 5-hydroxytryptamine receptor 6 (P50406 whole entry): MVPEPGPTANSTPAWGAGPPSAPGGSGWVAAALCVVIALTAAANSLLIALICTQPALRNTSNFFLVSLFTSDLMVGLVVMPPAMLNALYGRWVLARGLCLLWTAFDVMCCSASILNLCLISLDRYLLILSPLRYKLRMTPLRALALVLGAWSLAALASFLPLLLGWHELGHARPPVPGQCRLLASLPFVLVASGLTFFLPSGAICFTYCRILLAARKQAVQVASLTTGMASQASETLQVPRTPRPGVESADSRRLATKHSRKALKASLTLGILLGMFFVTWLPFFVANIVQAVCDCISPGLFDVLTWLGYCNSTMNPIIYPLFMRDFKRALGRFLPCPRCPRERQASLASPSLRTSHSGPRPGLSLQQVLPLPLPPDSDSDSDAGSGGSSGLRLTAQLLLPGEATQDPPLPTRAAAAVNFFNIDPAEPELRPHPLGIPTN
Experiment [8] deals with 5-hydroxytryptamine receptor 3A (Mus musculus, UniProt P23979).
Sequence of 5-hydroxytryptamine receptor 3A (P23979 as listed by the source): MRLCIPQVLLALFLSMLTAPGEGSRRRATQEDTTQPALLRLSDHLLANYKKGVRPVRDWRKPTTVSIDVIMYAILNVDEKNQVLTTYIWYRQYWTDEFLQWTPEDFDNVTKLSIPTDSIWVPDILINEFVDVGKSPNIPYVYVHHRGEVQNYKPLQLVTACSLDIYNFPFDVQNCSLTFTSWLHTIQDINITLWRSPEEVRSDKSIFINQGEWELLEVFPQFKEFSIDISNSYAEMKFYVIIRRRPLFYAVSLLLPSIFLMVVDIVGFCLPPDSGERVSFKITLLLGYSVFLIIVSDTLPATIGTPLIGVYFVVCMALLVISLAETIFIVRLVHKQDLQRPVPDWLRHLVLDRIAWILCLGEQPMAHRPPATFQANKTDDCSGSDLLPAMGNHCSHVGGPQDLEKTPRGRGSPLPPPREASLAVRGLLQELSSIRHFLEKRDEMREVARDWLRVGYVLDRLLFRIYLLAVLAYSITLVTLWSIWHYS
Experiment [9] addresses 5-hydroxytryptamine receptor 4 (Cavia porcellus, UniProt O70528).
The target in experiment [10] is 5-hydroxytryptamine receptor 5A (Homo sapiens, UniProt P47898).
Sequence of 5-hydroxytryptamine receptor 5A (P47898 whole entry): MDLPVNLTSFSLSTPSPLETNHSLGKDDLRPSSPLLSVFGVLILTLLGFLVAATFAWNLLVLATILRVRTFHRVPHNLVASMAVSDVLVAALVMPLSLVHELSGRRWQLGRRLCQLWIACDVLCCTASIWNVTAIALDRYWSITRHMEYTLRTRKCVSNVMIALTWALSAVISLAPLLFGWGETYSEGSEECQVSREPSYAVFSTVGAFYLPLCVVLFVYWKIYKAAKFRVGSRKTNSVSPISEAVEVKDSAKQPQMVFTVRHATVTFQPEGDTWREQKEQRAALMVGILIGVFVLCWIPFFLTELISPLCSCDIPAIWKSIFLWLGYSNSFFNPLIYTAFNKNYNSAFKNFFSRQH
For experiment [11], the target named is T1, Alpha-2A adrenergic receptor [16-465] (Rattus norvegicus, UniProt P22909).
T1 construct: 16-465

Experiment [12] has as its target 5-hydroxytryptamine receptor 2B (Homo sapiens, UniProt P41595).
Experiment [13] concerns the target Alpha-2C adrenergic receptor (Homo sapiens, UniProt P18825).
Experiment [14] addresses 5-hydroxytryptamine receptor 1D (Homo sapiens, UniProt P28221).
Experiment [15] has as its target Alpha-2B adrenergic receptor (Homo sapiens, UniProt P18089).
Experiment [16] has as its target 5-hydroxytryptamine receptor 1A (Homo sapiens, UniProt P08908).
The target in experiment [17] is Alpha-1B adrenergic receptor (Homo sapiens, UniProt P35368).
Experiment [18] has as its target 5-hydroxytryptamine receptor 1B (Homo sapiens, UniProt P28222).
For experiment [19], the target named is Alpha-2A adrenergic receptor (Homo sapiens, UniProt P08913).
Experiment [20] concerns the target 5-hydroxytryptamine receptor 2A (Homo sapiens, UniProt P28223).
In experiment [21] the target is Alpha-1D adrenergic receptor (Homo sapiens, UniProt P25100).
Experiment [22] addresses Alpha-1A adrenergic receptor (Homo sapiens, UniProt P35348).
The target in experiment [23] is 5-hydroxytryptamine receptor 2C (Homo sapiens, UniProt P28335).

Sequence of D(2) dopamine receptor (Homo sapiens, UniProt P14416) (P14416 whole entry): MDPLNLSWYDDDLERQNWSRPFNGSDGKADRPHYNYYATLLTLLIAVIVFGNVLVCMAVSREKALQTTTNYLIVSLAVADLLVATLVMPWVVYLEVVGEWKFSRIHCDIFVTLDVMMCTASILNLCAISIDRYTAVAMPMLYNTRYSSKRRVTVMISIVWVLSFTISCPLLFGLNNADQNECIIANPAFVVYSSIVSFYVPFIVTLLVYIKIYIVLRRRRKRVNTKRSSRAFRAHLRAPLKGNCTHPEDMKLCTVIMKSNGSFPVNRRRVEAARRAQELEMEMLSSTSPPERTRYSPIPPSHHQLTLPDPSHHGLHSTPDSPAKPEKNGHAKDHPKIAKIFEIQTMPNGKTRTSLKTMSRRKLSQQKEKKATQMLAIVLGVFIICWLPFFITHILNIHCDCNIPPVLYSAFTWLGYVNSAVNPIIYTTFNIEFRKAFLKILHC
Sequence of D(3) dopamine receptor (P35462 as listed by the source): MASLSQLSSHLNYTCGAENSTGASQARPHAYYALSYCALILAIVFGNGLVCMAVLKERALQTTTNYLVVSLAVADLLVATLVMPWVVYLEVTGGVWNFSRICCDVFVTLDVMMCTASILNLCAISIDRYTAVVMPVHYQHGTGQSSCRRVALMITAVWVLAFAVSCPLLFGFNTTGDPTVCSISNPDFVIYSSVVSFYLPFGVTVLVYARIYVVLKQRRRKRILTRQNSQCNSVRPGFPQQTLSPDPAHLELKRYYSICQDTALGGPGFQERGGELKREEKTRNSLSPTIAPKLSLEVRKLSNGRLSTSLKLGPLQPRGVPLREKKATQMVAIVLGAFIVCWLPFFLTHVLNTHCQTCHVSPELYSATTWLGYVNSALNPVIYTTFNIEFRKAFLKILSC
Sequence of Alpha-1A adrenergic receptor (Rattus norvegicus, UniProt P43140) (P43140 whole entry): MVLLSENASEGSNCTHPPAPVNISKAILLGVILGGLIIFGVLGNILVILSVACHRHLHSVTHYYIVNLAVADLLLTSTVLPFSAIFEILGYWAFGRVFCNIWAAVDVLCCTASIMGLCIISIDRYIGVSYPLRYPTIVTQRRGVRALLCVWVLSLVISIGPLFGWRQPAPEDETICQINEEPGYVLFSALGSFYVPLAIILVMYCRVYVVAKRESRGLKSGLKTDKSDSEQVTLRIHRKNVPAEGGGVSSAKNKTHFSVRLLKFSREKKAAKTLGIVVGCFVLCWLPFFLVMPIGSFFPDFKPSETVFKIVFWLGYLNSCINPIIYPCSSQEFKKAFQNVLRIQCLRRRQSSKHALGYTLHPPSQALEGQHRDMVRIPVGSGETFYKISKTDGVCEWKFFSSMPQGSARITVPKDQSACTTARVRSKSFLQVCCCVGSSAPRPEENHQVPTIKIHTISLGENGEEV
Sequence of 5-hydroxytryptamine receptor 7 (P34969 whole entry): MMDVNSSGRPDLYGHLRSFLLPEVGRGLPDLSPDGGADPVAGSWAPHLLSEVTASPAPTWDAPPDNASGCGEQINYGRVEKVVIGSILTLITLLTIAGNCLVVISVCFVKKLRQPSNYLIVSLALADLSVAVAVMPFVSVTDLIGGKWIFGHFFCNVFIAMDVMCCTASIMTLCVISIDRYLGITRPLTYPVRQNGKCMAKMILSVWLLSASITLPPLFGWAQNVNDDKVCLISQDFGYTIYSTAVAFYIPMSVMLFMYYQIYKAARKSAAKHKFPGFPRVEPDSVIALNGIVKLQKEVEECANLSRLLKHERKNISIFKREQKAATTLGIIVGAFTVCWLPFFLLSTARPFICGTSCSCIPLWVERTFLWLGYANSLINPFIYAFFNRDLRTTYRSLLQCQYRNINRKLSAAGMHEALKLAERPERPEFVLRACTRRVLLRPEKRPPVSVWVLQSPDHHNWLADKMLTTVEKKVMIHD
Sequence of 5-hydroxytryptamine receptor 4 (O70528 whole entry): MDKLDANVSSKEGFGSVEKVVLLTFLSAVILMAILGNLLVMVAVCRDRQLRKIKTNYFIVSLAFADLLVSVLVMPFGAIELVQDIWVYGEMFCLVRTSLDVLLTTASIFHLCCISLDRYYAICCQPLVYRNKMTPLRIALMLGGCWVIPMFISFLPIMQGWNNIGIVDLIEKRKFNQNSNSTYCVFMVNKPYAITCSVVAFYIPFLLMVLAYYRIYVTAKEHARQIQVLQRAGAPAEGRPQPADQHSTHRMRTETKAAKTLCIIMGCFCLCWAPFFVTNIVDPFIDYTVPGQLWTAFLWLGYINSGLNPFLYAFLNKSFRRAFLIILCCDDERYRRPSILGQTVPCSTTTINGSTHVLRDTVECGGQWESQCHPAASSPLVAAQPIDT
Sequence of D(2) dopamine receptor (Rattus norvegicus, UniProt P61169) (P61169 whole entry): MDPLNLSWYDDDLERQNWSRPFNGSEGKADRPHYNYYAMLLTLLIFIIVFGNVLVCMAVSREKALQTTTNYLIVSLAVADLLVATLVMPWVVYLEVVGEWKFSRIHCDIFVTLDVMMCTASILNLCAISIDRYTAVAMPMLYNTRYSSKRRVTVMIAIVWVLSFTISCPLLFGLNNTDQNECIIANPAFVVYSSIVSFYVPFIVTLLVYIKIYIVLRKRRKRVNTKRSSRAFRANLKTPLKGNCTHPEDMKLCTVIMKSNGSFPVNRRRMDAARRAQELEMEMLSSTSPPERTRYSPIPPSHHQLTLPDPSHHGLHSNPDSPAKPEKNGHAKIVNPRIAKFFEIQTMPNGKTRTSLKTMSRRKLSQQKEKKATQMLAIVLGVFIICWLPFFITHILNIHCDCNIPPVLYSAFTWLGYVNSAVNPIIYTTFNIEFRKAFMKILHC
Sequence of Alpha-2B adrenergic receptor (P18089 whole entry): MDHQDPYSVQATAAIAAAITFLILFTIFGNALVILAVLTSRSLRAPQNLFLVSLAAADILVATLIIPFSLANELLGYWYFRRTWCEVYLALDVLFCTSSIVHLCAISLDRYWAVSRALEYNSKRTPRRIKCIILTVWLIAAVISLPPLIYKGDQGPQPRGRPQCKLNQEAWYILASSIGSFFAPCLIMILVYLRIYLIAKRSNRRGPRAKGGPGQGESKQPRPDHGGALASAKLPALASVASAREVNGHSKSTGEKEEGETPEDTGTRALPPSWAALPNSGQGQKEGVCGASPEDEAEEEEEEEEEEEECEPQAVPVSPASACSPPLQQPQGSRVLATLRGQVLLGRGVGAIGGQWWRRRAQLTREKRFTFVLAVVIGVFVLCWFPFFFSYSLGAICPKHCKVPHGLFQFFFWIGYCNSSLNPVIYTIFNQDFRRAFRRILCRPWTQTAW
Sequence of 5-hydroxytryptamine receptor 1A (P08908 whole entry): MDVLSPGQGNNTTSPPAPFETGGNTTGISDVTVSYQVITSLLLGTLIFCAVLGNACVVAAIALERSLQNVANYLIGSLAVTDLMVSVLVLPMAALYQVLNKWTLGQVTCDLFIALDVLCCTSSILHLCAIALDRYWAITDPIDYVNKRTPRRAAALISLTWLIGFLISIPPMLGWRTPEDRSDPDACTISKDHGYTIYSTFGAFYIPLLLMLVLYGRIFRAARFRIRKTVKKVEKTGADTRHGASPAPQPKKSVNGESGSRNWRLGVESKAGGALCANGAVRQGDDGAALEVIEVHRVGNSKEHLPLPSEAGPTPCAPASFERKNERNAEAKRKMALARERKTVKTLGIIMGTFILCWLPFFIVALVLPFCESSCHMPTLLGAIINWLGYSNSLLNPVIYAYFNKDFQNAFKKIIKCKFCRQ

By Ki is commonly meant the equilibrium dissociation constant of an inhibitor or competing ligand from its target. Low readings indicate higher affinity, high ones lower affinity. Turning to `CCCN1CCO[C@@H]2c3cc(C(N)=O)ccc3CC[C@H]21` [S32504 (+)], the Ki was 457 nM in experiment [1]; 5130 nM in experiment [2]; 8.91 nM in experiment [3]; 513 nM and 355 nM in experiment [4].

Take `N#Cc1ccc2c(c1)[C@H]1CN(CCCCNC(=O)c3ccc(-c4ccccc4)cc3)C[C@@H]1CO2` [S33084]: the Ki in experiment [3] worked out at 0.26 nM; in [4], 29.5 nM.

For the compound `CCCN(CCC)CCc1cccc2c1CC(=O)N2`, the Ki in experiment [1] is 1150 nM; in experiment [5], 1510 nM; in experiment [6], above 10000 nM; in experiment [7] it was above 10000 nM; in experiment [8], above 10000 nM; in experiment [9], above 10000 nM. The Ki in experiment [10] is above 10000 nM.

As for `CCCN1CCOC2c3cc(C(N)=O)ccc3CCC21` (stereo not drawn) [S32504], the inhibitory constant (Ki) is above 10000 nM in experiment [11]; 661 nM in experiment [5]; 4570 nM in experiment [12]; above 10000 nM in [13]; above 10000 nM in experiment [6]; 263 nM in experiment [14]. The Ki in experiment [15] was 1660 nM; in experiment [16] it was 257 nM; in experiment [17], above 10000 nM; in [7] it was above 10000 nM; in experiment [18] it was above 10000 nM; in experiment [19], 8130 nM. In addition, the Ki in experiment [3] is 8.91 nM; in experiment [20], 5250 nM; in [8], above 10000 nM; in experiment [21], above 10000 nM; in experiment [9], above 10000 nM; in [22], above 10000 nM. Also, the Ki in experiment [23] and in experiment [10] was above 10000 nM throughout.
